Columns and labels:
Format in all cases: in vivo
[1] = tested on: Wheat; experiment: Greenhouse trial, post-emergence crop damage, visual scoring; settings: approx. 4 weeks after application
Protocol: (§1) The seeds of typical harmful plants and of typical cereal plants were sown, allowed to emerge and grown under greenhouse conditions. Treatment with the compositions according to the invention was carried out after emergence of the harmful plants generally at the 2- to 4-leaf stage at various dosages using a water application rate of 300 l/ha (converted).
(§2) After the treatment (approx. 4 weeks after application), the herbidical activity of the active compounds or active compound mixtures was scored visually by comparing the treated plots with untreated control plots. Damage and development of all above-ground parts of the plants was recorded. Scoring was done on a percentage scale (100% activity=all plants dead; 50% activity=50% of the plants and green plant parts dead; 0% activity=no discernible activity=like control plot).
(§3) The results are listed in the tables below, where the activity measured for the independent use of the active compounds A) and B) is stated in brackets and g of AS/ha means gram of active substance per hectare.

[2] = tested on: Lolium multiflorum; experiment: Greenhouse trial, post-emergence herbicidal action, visual scoring; settings: 672 h, approx. 4 weeks after application
Protocol: as §1, §2, §3

[3] = tested on: Alopecurus myosuroidis; experiment: as above; settings: 672 h, approx. 4 weeks after application
Protocol: as §1, §2, §3

Fc1ccc([C@]2(Cn3cncn3)O[C@H]2c2ccccc2Cl)cc1 (racemic) [epoxiconazole]
0%: Wheat % damage ([1]; 125 g of AS/ha) | Wheat % damage ([1]; 250 g of AS/ha) | inhibition at 125 g/ha ([2]; 125 g of AS/ha) | inhibition at 250 g/ha ([2]; 250 g of AS/ha) | inhibition at 125 g/ha ([3]; 125 g of AS/ha) | inhibition at 250 g/ha ([3]; 250 g of AS/ha)
